Experimental data reported in the NIST ThermoML archive (doi:10.1021/je300632p).
± gives the expanded uncertainty stated by the source.

Test: xn = mol fraction of the nth substance listed
Conditions: 101 kPa, Liquid, x1 = 1; for viscosity: Falling or rolling sphere viscometry; for mass density: Vibrating tube method

viscosity (293.15 K) [mPa·s] | mass density (293.15 K) [kg/m3] | viscosity (298.15 K) [mPa·s] | mass density (298.15 K) [kg/m3] | viscosity (303.15 K) [mPa·s] | mass density (303.15 K) [kg/m3] | viscosity (308.15 K) [mPa·s] | mass density (308.15 K) [kg/m3] | viscosity (313.15 K) [mPa·s] | mass density (313.15 K) [kg/m3] | viscosity (318.15 K) [mPa·s] | mass density (318.15 K) [kg/m3] | viscosity (323.15 K) [mPa·s] | mass density (323.15 K) [kg/m3] | viscosity (328.15 K) [mPa·s] | mass density (328.15 K) [kg/m3] | SMILES
1.151 ± 0.012 | 790.13 ± 0.12 | 1.069 ± 0.011 | 785.86 ± 0.13 | 0.973 ± 0.011 | 781.56 ± 0.13 | 0.888 ± 0.01 | 777.23 ± 0.13 | 0.813 ± 0.01 | 772.86 ± 0.13 | 0.755 ± 0.01 | 768.44 ± 0.13 | 0.684 ± 0.009 | 763.97 ± 0.13 | 0.63 ± 0.009 | 759.44 ± 0.13 | CCO [ethanol] + CCCCCO
1.151 ± 0.024 | 790.13 ± 0.12 | 1.069 ± 0.023 | 785.86 ± 0.13 | 0.973 ± 0.021 | 781.56 ± 0.13 | 0.888 ± 0.019 | 777.23 ± 0.13 | 0.813 ± 0.017 | 772.86 ± 0.13 | 0.755 ± 0.016 | 768.44 ± 0.13 | 0.684 ± 0.015 | 763.97 ± 0.13 | 0.63 ± 0.013 | 759.44 ± 0.13 | CCO [ethanol] + CCCCO
1.151 ± 0.012 | 790.13 ± 0.12 | 1.069 ± 0.011 | 785.86 ± 0.13 | 0.973 ± 0.011 | 781.56 ± 0.13 | 0.888 ± 0.01 | 777.23 ± 0.13 | 0.813 ± 0.01 | 772.86 ± 0.13 | 0.755 ± 0.01 | 768.44 ± 0.13 | 0.684 ± 0.009 | 763.97 ± 0.13 | 0.63 ± 0.009 | 759.44 ± 0.13 | CCO [ethanol] + CCCO
